Results: paper PMC8518391, “Synthesis and Biological Evaluation of Dantrolene‐Like Hydrazide and Hydrazone Analogues as Multitarget Agents for Neurodegenerative Diseases” (Chemmedchem, 2021)

Assays:
[1] = biological target: T1, hAChE (Homo sapiens, UniProt P22303); assay: biochemical; conditions: read-out: % inhibition at 10 μM hAChE
T1 construct: purchased Sigma Aldrich
Description: (§1) Readings were made with Infinite M1000 Pro plate reader (Tecan, Cernusco s.N., Italy) and statistical regressions with Prism software (GraphPad Prism version 5.00 for Windows, GraphPad Software, San Diego, CA, USA).

[2] = biological target: T2, hMAO A (Homo sapiens, UniProt P21397); assay: biochemical
T2 construct: purchased Sigma Aldrich
T2 sequence (P21397 1-527): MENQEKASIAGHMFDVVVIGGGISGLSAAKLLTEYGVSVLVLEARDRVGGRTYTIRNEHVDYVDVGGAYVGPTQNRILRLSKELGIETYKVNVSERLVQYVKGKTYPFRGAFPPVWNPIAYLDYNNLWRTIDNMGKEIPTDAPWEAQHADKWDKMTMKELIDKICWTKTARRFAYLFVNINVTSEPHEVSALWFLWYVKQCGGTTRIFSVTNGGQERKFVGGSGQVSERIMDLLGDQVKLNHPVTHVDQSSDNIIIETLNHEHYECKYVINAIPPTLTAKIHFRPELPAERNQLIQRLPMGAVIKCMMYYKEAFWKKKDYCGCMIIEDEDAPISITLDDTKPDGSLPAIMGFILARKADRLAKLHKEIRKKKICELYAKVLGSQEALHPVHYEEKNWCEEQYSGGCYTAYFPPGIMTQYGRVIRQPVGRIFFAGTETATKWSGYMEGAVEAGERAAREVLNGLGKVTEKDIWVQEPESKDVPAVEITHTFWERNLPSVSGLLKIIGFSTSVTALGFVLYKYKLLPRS
Description: as §1

[3] = RP-HPLC lipophilicity index log k’; assay type: physicochemical; conditions: MeOH/phosphate buffer pH 7.4; methanol/PBS 60:40 v/v
Description: To investigate a possible correlation between MAO inhibitory potency and lipophilicity,[7] we calculated log P with three different programs (ChemDraw 15.0; ALOG PS 2.1; ChemSketch 2017, see Table S1 in Supporting Information) and compared the calculated values with experimental lipophilicity indexes as assessed by reversed‐phase (RP) HPLC in isocratic conditions for the majority of compounds. The log of capacity factors (log k’) measured by RP‐HPLC using a mixture of methanol/PBS (60 : 40, v/v) as the mobile phase are reported in Tables 1 and 2, along with Clog P values calculated with ChemDraw. These calculated lipophilicity descriptors correlated with the experimental log k’ values (n=13, r ^2=0.901) better than the other log Ps calculated by ALOG PS and ChemSketch computational tools (r ^2 equal 0.705 and 0.568, respectively). As shown by the scatter plots in Figure 4 and Figure S1 in Supporting Information, there is no evident correlation trend between MAO A/B inhibition data and lipophilicity calculated by the expert system implemented in ChemDraw for compounds achieving finite IC50 values.
Log k’ values (k’=(tr‐t0)/t0) and purity determinations were carried out using a Phenomenex Gemini C18 4.6×150 mm, with 3 μm size particles, built on a Waters double pump HPLC system in isocratic conditions. Injection volumes were 10 μL, flow rate was 0.5 mL/min, and detection was performed with UV (λ=254 and 370 nm). Samples were prepared by dissolving 0.1 mg/mL of the solute in 10 % v/v DMSO and 90 % v/v methanol. Retention times (tr) were measured at least from three separate injections, and dead time (t0) was the retention time of deuterated methanol. The mobile phase was filtered through a Supelco Nylon‐66 membrane 0.45 μm (Merck Life Science Srl, Milan, Italy) before use. For each reference compound, the average tr of three consecutive injections of 10 μL of sample was used to calculate the log k’ values. The eluent consisted of five different mixtures of methanol and PBS buffer 10 mM at pH 7.4, with methanol/buffer ratios ranging from 80 : 20 to 60 : 40 v/v.

[4] = biological target: T3, hMAO B (Homo sapiens, UniProt P27338); assay: biochemical; assay type: biochemical
T3 construct: purchased Sigma Aldrich
T3 sequence (P27338 1-520): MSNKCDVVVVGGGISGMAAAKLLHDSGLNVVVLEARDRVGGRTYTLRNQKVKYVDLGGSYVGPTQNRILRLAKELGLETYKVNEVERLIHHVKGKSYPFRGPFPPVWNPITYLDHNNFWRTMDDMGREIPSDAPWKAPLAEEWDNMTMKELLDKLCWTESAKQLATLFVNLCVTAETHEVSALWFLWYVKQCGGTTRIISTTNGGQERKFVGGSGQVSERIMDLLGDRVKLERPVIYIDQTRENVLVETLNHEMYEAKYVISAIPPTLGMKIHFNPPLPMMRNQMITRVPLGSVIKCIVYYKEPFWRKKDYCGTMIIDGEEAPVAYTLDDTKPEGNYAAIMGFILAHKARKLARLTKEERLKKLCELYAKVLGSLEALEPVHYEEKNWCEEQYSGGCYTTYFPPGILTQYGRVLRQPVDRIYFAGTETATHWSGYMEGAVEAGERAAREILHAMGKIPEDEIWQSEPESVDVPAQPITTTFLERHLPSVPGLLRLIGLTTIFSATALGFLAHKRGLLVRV

[5] = tested on: SH-SY5Y cells; assay: DCF-DA assay of ROS production induced by dopamine in SH-SY5Y cells; assay type: cell-based, human; conditions: 10 nM dopamine + 10 nM compound
Experimental: The immortalized neuroblastoma cells are a widely used model for neuroprotection assays, while dopamine at a concentration of 10 nM acts as an inducer of oxidative stress,[8, 9] being metabolized by MAOs to form hydrogen peroxide. Once hydrolyzed and oxidized, DCF acts as the fluorescing probe of the oxidative stress (OS) state of cells. In the presence of an antioxidant, or even of a MAO inhibitor, ROS burden is lowered and DCF fluorescence decreased. […] Its activity is superimposable to that of phenelzine, a nonselective MAO inhibitor used as a positive control in this test.[10] The same experiment performed on dantrolene in our previous work gave similar results.[1]
Reagents for cell cultures were purchased from Life Technologies (ThermoFisher Scientific, Waltham, MA, USA) unless otherwise stated. […]
ROS production in SH‐SY5Y cell line was detected using Cellular Reactive Oxygen Species Detection Assay Kit ab186027 (Abcam, Cambridge, UK), as previously described.[1] […] After incubation and washing, DCF‐DA was added, the plate was incubated, washed again with PBS, and the fluorescence read every 15 min in a 60 min time interval at 535 nm (excitation at 485 nm) using the Tecan Infinite M1000 Pro plate reader.

[6] = Hydrolytic stability in buffered solution (PBS pH 7.4, 37 °C); assay type: physicochemical; conditions: 20 μM in 10 mM PBS pH 7.4, 37 °C, 6 h incubation
Experimental: The hydrolytic stability of some representative imino/hydrazone/hydrazide derivatives was determined in buffered aqueous media. […]. […]. The hydrolytic degradation of 9 in its starting reagents was confirmed by the comparison of the chromatograms of 9 and 2‐chloro‐4‐hydroxyaniline, obtained in the same chromatographic conditions (Figure 6B).
Stability studies in buffered solution were performed following an already described procedure,[23] on a Phenomenex C18 column (150×4.6 mm i.d., 3 μm particle size; Phenomenex, Castel Maggiore, Italy) using a mobile phase consisting of a mixture of methanol‐water (75 : 25 v/v, with aqueous formic acid 0.1 %). The used flow rate was 0.500 mL/min while the injection volume was 20 μL. Wavelength of UV‐Vis detector was adjusted at 254 nm. The chemical stability was evaluated in a phosphate buffer solution pH 7.4 (10 mM HPO4 ^2−/H2PO4 ^−; 100 mM NaCl) at 37 °C. Five different concentrations from 0.5 μM to 20 μM were studied in a 2 h time range (data not shown). Each concentration (0.5, 1, 5, 10 and 20 μM) was tested in triplicate starting from 3 different stocks solution (1 mM) prepared separately. The time range was extended to 6 h only for the samples at 20 μM concentration (Figure 6a).

[7] = biological target: T3, hMAO B; parameters: method as in PMID 31775359; conditions: cited from earlier work

T1 sequence (P22303 32-614): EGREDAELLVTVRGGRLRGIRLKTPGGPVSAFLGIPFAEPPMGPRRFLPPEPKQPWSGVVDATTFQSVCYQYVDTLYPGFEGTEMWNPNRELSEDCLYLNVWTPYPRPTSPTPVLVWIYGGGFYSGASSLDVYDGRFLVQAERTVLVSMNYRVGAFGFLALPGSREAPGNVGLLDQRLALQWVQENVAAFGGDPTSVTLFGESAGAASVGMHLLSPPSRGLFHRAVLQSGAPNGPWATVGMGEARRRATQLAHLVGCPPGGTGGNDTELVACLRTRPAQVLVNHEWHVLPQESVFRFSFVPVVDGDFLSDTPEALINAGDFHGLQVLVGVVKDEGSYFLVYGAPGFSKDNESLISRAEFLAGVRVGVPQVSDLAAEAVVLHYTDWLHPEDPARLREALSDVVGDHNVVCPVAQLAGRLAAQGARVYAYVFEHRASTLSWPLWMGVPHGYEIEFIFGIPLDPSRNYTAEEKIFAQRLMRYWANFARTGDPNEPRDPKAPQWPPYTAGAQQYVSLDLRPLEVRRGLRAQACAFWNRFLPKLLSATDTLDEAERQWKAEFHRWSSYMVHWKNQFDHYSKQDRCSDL

Row | Compound | inhibition at 10 µM [1] [%] | IC50 [2] [nM] | log k’ (logarithm of capacity factor, RP-HPLC) [3] | IC50 [4] [nM] | mechanism of hMAO B inhibition ([4]; Michaelis-Menten / Lineweaver-Burk) | selectivity for MAO B over MAO A ([4]; from IC50 values) [fold] | Ki ([4]; inhibition kinetics without preincubation, kynuramine substrate) [nM] | reduction of ROS oxidation of DCF [5] | degradation percentage [6] [%] | Ki human MAO B [7]
1 | N#Cc1ccc(-c2ccc(/C=N/c3ccc(O)cc3Cl)o2)cc1 [Compound 9] | 30 | 3460 ± 250 | 0.782 | 680 ± 50 | competitive | 5 | 500 ± 60 | effective in reducing ROS oxidation of DCF | 76 | –
2 | O=C1CN(/N=C/c2ccc(-c3ccc([N+](=O)[O-])cc3)o2)C(O)=N1 [DAN, Dantrolene] | – | – | 0.115 | – | – | – | – | – | – | low micromolar range
